Source: US9932311B2, “Antidiabetic tricyclic compounds” (Merck Sharp & Dohme Corp., priority 2013, dated 2018)

Tests used:
Human GPR40 [1] = target: T1, Human GPR40 (Homo sapiens, UniProt O14842); experiment: FLIPR assay (agonist-induced calcium mobilization); assay type: cell-based; set-up: expressed in transfected cells; conditions: GPR40/CHO NFAT BLA cells
Description: (§1) Human and mouse GPR40 stable cell-lines were generated in CHO cells stably expressing NFAT BLA (Beta-lactamase). A human GPR40 stable cell-line was generated in HEK cells stably expressing the aequorin expressing reporter. The expression plasmids were transfected using lipofectamine (Life Technologies) following manufacturer's instructions. Stable cell-lines were generated following drug selection.
FLIPR (Fluorimetric Imaging Plate Reader, Molecular Devices) assays were performed to measure agonist-induced calcium mobilization of the stable clones. For the FLIPR assay, one day before assay, GPR40/CHO NFAT BLA cells were seeded into black-wall-clear-bottom 384-well plates (Costar) at 1.4×10e4 cells/20 μL medium/well. The cells were incubated with 20 μl/well of the assay buffer (HBSS, 0.1% BSA, 20 mM HEPES, 2.5 mM probenecid, pH 7.4) containing 8 μM fluo-4, AM, 0.08% pluronic acid at room temperature for 100 minutes. Fluorescence output was measured using FLIPR. Compounds were dissolved in DMSO and diluted to desired concentrations with assay buffer. 13.3 μL/well of compound solution was added.

Human GPR40 [2] = target: T1, Human GPR40; experiment: Inositol Phosphate Turnover (IP1) Assay 1; assay type: cell-based; set-up: expressed in transfected cells; host or cells: HEK cells stably expressing the aequorin reporter; conditions: HEK cells stably expressing human GPR40, 96-well, 3H-inositol labeling, SPA beads
Description: as §1
The assay was performed in 96-well format. HEK cells stably expressing human GPR40 were plated to be 60-80% confluent within 72 h. After 72 h, the plates were aspirated and the cells washed with inositol-free DMEM (ICN). The wash media was replaced with 150 μL of 3H-inositol labeling media (inositol-free media containing 0.4% human albumin or 0.4% mouse albumin, 1× pen/strep antibiotics, glutamine, 25 mM HEPES to which was added 3H-myo-inositol NEN #NET114A 1 mCi/mL, 25 Ci/mmol diluted 1:150 in loading media with a final specific radioactivity of 1 μCi/150 μL). Alternatively, the human and mouse albumin can be added after the overnight labeling step before the addition of LiCl.
The assay was typically run the next day after 18 h labeling. On the day of the assay, 5 μL of 300 mM LiCl was added to all wells and incubated at 37 degrees for 20 min 0.75 μL of 200× compounds were added and incubated with the cells for 60 min at 37 degrees. The media was then aspirated off and the assay terminated with the addition of 60 μL 10 mM formic acid. The cells were lysed for 60 min at room temperature. 15-30 μL of lysate was mixed with 70 μL/1 mg YSi SPA beads (Amersham) in clear bottom Isoplates. The plates were shaken for 2 h at room temperature. Beads were allowed to settle and the plates were counted in the Wallac Microbeta.

T1 sequence (O14842 whole entry): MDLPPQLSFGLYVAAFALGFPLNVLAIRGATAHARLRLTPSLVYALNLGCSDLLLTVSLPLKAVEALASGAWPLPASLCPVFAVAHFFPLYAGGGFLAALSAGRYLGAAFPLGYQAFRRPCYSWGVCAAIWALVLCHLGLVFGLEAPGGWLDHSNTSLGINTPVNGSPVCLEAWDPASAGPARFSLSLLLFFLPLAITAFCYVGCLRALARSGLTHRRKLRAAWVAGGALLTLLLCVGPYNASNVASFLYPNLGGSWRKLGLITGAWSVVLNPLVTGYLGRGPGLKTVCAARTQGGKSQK

Structure (SMILES)	EC50 (Human GPR40 [1]) [nM]	EC50 (Human GPR40 [2]) [nM]
Cc1cc(OCCC(C)(C)O)ccc1-c1cc(COc2cc3c(cn2)[C@H]2[C@@H](C3)[C@@H]2C(=O)O)c(F)cc1C(F)F [Example 4, (5aR,6S,6aS)-3-((6-(difluoro-methyl)-4-fluoro-4′-(3-hydroxy-3-methyl-butoxy)-2′-methyl-[1,1′-biphenyl]-3-yl)methoxy)-5,5a,6,6a-tetrahydrocyclo-propa[4,5] cyclopenta[1,2-c] pyridine-6-carboxylic acid]	14.4	5.25
Cc1cc(OCCCS(C)(=O)=O)ccc1-c1cc(COc2cc3c(cn2)[C@H]2[C@@H](C3)[C@@H]2C(=O)O)c(F)cc1C(F)(F)F [Example 2, (5aR,6S,6aS)-3-((4-fluoro-2′-methyl-4′-(3-(methyl-sulfonyl)-propoxy)-6-(tri-fluoromethyl)-[1,1′-biphenyl]-3-yl)methoxy)-5,5a,6,6a-tetrahydrocyclo-propa[4,5]cyclopenta [1,2-c]pyridine-6-carboxylic acid]	5.75	2.98
O=C(O)[C@H]1[C@@H]2Cc3cc(OCc4cc(-c5c(F)cc(OCCC6(O)COC6)cc5F)c(C(F)(F)F)cc4F)ncc3[C@@H]21 [Example 9, (5aR,6S,6aS)-3-((2′,4,6′-trifluoro-4′-(2-(3-hydroxy-oxetan-3-yl)ethoxy)-6-(trifluoromethyl)-[1,1′-biphenyl]-3-yl)methoxy)-5,5a,6,6a-tetrahydrocyclopropa [4,5]cyclopenta[1,2-c]pyridine-6-carboxylic acid]	6.89	11.1
CC(C)(O)CCOc1ccc(-c2cc(COc3cc4c(cn3)[C@H]3[C@@H](C4)[C@@H]3C(=O)O)c(F)cc2C(F)(F)F)c(C(F)F)c1 [Example 13, (5aR,6S,6aS)-3-((2'-(difluoromethyl)-4-fluoro-4'-(3-hydroxy-3-methyl-butoxy)-6-(trifluoromethyl)-[1,1'-biphenyl]-3-yl)-methoxy)-5,5a,6,6a-tetra-hydrocyclo-propa[4,5]cyclopenta [1,2-c]pyridine-6-carboxylic acid]	9.66	5.94
CS(=O)(=O)CCCOc1ccc(-c2cc(COc3cc4c(cn3)[C@H]3[C@@H](C4)[C@@H]3C(=O)O)c(F)cc2C(F)(F)F)c(F)c1 [Example 8, (5aR,6S,6aS)-3-((2′,4-difluoro-4′-(3-(methyl-sulfonyl)-propoxy)-6-(trifluoromethyl)-[1,1′-biphenyl]-3-yl)methoxy)-5,5a,6,6a-tetrahydro-cyclopropa[4,5]cyclo-penta[1,2-c]pyridine-6-carboxylic acid]	9.2	6.54
CC(C)(O)CCOc1ccc(-c2cc(COc3cc4c(cn3)[C@H]3[C@@H](C4)[C@@H]3C(=O)O)c(F)cc2C(F)(F)F)cc1 [Example 5, (5aR,6S,6aS)-3-((4-fluoro-4′-(3-hydroxy-3-methylbutoxy)-6-(trifluoromethyl)-[1,1′-biphenyl]-3-yl)methoxy)-5,5a,6,6a-tetrahydrocyclopropa[4,5]cyclopenta[1,2-c]pyridine-6-carboxylic acid]	24.9	6.24
CC(C)(O)CCOc1ncc(-c2cc(COc3cc4c(cn3)[C@H]3[C@@H](C4)[C@@H]3C(=O)O)c(F)cc2C(F)(F)F)cc1F [Example 15, (5aR,6S,6aS)-3-((2-fluoro-5-(5-fluoro-6-(3-hydroxy-3-methylbutoxy)pyridin-3-yl)-4-(trifluoromethyl)benzyl)oxy)-5,5a,6,6a-tetrahydrocyclopropa[4,5]cyclopenta[1,2-c]pyridine-6-carboxylic acid]	4.88	7.97
Cc1cc(OCCC(C)(C)O)ccc1-c1cc(COc2cc3c(cn2)[C@H]2[C@@H](C3)[C@@H]2C(=O)O)c(F)cc1C(F)(F)F [Example 1]	16.7	9.89
Cc1cc(OCCC2(O)COC2)ccc1-c1cc(COc2cc3c(cn2)[C@H]2[C@@H](C3)[C@@H]2C(=O)O)c(F)cc1C(F)(F)F [Example 14, (5aR,6S,6aS)-3-((4-fluoro-4′-(2-(3-hydroxyoxetan-3-yl)ethoxy)-2′-methyl-6-(trifluoromethyl)-[1,1′-biphenyl]-3-yl)methoxy)-5,5a,6,6a-tetrahydrocyclopropa[4,5]cyclopenta[1,2-c]pyridine-6-carboxylic acid]	10.4	5.54
CC(O)(CCOc1ccc(-c2cc(COc3cc4c(cn3)[C@H]3[C@@H](C4)[C@@H]3C(=O)O)c(F)cc2C(F)(F)F)cc1)C(F)F (stereo partly drawn) [Example 12, (5aR,6S,6aS)-3-((4′-(4,4-difluoro-3-hydroxy-3-methylbutoxy)-4-fluoro-6-(trifluoromethyl)-[1,1′-biphenyl]-3-yl)methoxy)-5,5a,6,6a-tetrahydrocyclopropa[4,5]cyclopenta[1,2-c]pyridine-6-carboxylic acid]	12.5	20.3
Cc1nc(OCCC(C)(C)O)ccc1-c1cc(COc2cc3c(cn2)[C@H]2[C@@H](C3)[C@@H]2C(=O)O)c(F)cc1C(F)(F)F [Example 3, (5aR,6S,6aS)-3-((2-fluoro-5-(6-(3-hydroxy-3-methyl-butoxy)-2-methyl-pyridin-3-yl)-4-(trifluoromethyl)-benzyl)-oxy)-5,5a, 6,6a-tetrahydro-cyclopropa[4,5] cyclopenta[1,2-c] pyridine-6-carboxylic acid]	1.52	4.95
Cc1nc(OCCC(C)(O)C(F)F)ccc1-c1cc(COc2cc3c(cn2)[C@H]2[C@@H](C3)[C@@H]2C(=O)O)c(F)cc1C(F)(F)F (stereo partly drawn) [Example 16, (5aR,6S,6aS)-3-((5-(6-(4,4-difluoro-3-hydroxy-3-methyl-butoxy)-2-methyl-pyridin-3-yl)-2-fluoro-4-(trifluoro-methyl)-benzyl)-oxy)-5,5a,6,6a-tetrahydro-cyclo-propa[4,5]cyclopenta [1,2-c]pyridine-6-carboxylic acid]		10.4
Cc1cc(OCCC(O)C(C)(C)O)cc(C)c1-c1cc(COc2cc3c(cn2)[C@H]2[C@@H](C3)[C@@H]2C(=O)O)c(F)cc1F (stereo partly drawn) [Example 18, (5aR,6S,6aS)-3-((4′-((3,4-dihydroxy-4-methylpentyl)oxy)-4,6-difluoro-2′,6′-dimethyl-[1,1′-biphenyl]-3-yl)methoxy)-5,5a,6,6a-tetrahydrocycloprop[4,5]cyclopenta[1,2-c]pyridine-6-carboxylic acid]		19.2
CC(C)(O)CCOc1cc(F)c(-c2cc(COc3cc4c(cn3)[C@H]3[C@@H](C4)[C@@H]3C(=O)O)c(F)cc2C(F)(F)F)c(F)c1 [Example 10, (5aR,6S,6aS)-3-((2′,4,6′-trifluoro-4′-(3-hydroxy-3-methylbutoxy)-6-(trifluoromethyl)-[1,1′-biphenyl]-3-yl)methoxy)-5,5a,6,6a-tetrahydrocyclo-propa[4,5]cyclopenta [1,2-c]pyridine-6-carboxylic acid]	6.4	27.2
CC(C)(O)CCOc1ccc(-c2cc(COc3cc4c(cn3)[C@H]3[C@@H](C4)[C@@H]3C(=O)O)c(F)cc2C(F)F)cc1F [Example 11, (5aR,6S,6aS)-3-((6-(di-fluoro-methyl)-3',4-di-fluoro-4'-(3-hydroxy-3-methyl-butoxy)-[1,1'-biphenyl]-3-yl)methoxy)-5,5a,6,6a-tetrahydro-cyclopropa[4,5]cyclo-penta[1,2-c]pyridine-6-carboxylic acid]	16.7	17.6
